{
  "source": "patent US20080249113A1",
  "about": "“Fungicidal Mixtures” (priority 2004, published 2008)",
  "type_in_all_cases": "in vivo",
  "key": {"Pyrenophora teres": {"tested_on": "Pyrenophora teres", "assay": "Use Example 7: net blotch of barley caused by Pyrenophora teres, 1 day protective application, synergism test", "settings": "individual active compound", "method": "(§1) For use examples 3 to 9, the active compounds, separately or jointly, were prepared as a stock solution comprising 0.25% by weight of active compound in acetone or DMSO. 1% by weight of the emulsifier Uniperol® EL (wetter having emulsifying and dispersant action based on ethoxylated alkylphenols) was added to this solution, and the mixture was diluted with water to the desired concentration.\nLeaves of potted barley seedlings were sprayed to run off with an aqueous suspension having the active compound concentration stated below. 24 hours after the spray coating had dried on, the test plants were inoculated with an aqueous spore suspension of Pyrenophora [syn. Drechslera ] teres, the net blotch pathogen. The test plants were then placed in a greenhouse at temperatures between 20 and 24° C. and 95 to 100% relative atmospheric humidity. After 6 days, the extent of the development of the disease was determined visually in % infection of the entire leaf area.\n(§2) The visually determined percentages of infected leaf areas were converted into efficacies in % of the untreated control:\n(§3) The efficacy (E) is calculated as follows using Abbot's formula: […]\n(§4) α corresponds to the fungicidal infection of the treated plants in % and β corresponds to the fungicidal infection of the untreated (control) plants in %\n(§5) […]; The expected efficacies of mixtures of active compounds were determined using Colby's formula (Colby, S.R. “Calculating synergistic and antagonistic responses of herbicide combinations”, Weeds, 15, 20-22, 1967) and compared with the observed efficacies.\n(§6) E=x+y−x·y/100 • E expected efficacy, expressed in % of the untreated control, when using the mixture of the active compounds A and B at the concentrations a and b • x efficacy, expressed in % of the untreated control, when using the active compound A at the concentration a • y efficacy, expressed in % of the untreated control, when using the active compound B at the concentration b\nIn a further test according to use example 4, the following results were obtained: […]"}, "Alternaria solani": {"tested_on": "Alternaria solani", "assay": "Use Example 5: early blight of tomato caused by Alternaria solani, synergism test (Abbot efficacy, Colby)", "settings": "individual active compound; for pest or weed control at 4 ppm: 4 ppm in the spray liquor", "method": "as §1\n(§7) The active compounds fosetyl-AI, epoxiconazole, triticonazole and pyraclostrobin were applied in their commercial formulation.\nLeaves of potted plants of the cultivar “Goldene Königin” were sprayed to run off point with an aqueous suspension having the active compound concentration stated below. The next day, the leaves were infected with an aqueous spore suspension of Alternaria solani in a 2% strength biomalt solution having a density of 0.17×10^6 spores/ml. The plants were then placed in a water vapor-saturated chamber at temperatures between 20 and 22° C. After 5 days, the disease on the untreated but infected control plants had developed to such an extent that the infection could be determined visually in %.\nA further test according to use example 3 was evaluated as follows:\nas §2, §3, §4, §5, §6"}, "Puccinia recondita": {"tested_on": "Puccinia recondita", "assay": "Use Example 6: protective activity against Puccinia recondita on wheat (brown rust of wheat)", "settings": "individual active compound", "method": "as §1, §7, §2, §3, §4, §5, §6\nLeaves of potted wheat seedlings of the cultivar “Kanzler” were sprayed to run off point with an aqueous suspension having the active compound concentration stated below. The next day, the treated plants were inoculated with a spore suspension of brown rust of wheat (Puccinia recondite). The plants were then placed in a chamber with high atmospheric humidity (90 to 95%) at 20 to 22° C. for 24 hours. During this time, the spores germinated and the germ tubes penetrated into the leaf tissue. The next day, the test plants were returned to the greenhouse and cultivated at temperatures between 20 and 22° C. and 65 to 70% relative atmospheric humidity for a further 7 days. The extent of the rust fungus development on the leaves was then determined visually."}, "[1]": {"settings": "Alternaria solani, 120 h, read-out: Efficacy in % of the untreated control"}, "[2]": {"settings": "Alternaria solani, 120 h, 16 ppm in the spray liquor, read-out: Efficacy in % of the untreated control"}, "[3]": {"settings": "Alternaria solani, 120 h, 63 ppm in the spray liquor, read-out: Efficacy in % of the untreated control"}},
  "data": [
    {"compound": "N#Cc1sc2c(=O)c3ccccc3c(=O)c=2sc1C#N", "note": "[dithianon, 5,10-dioxo-5,10-dihydronaphtho[2,3-b][1,4]dithiine-2,3-dicarbonitrile]", "values": [
      {"measurement": "Efficacy in % of the untreated control", "setting": "Pyrenophora teres; 16 ppm in the spray liquor", "value": 0, "unit": "%"}
    ]},
    {"compound": "CC1(C)CCC(=Cc2ccc(Cl)cc2)C1(O)Cn1cncn1", "note": "(centres unmarked) [triticonazole, 5-(4-chlorobenzylidene)-2,2-dimethyl-1-[1,2,4]triazol-1-ylmethylcyclo-pentanol]", "values": [
      {"measurement": "pest or weed control at 4 ppm", "setting": "Alternaria solani; [1]", "value": 0, "unit": "%"}
    ]},
    {"compound": "Cc1ccc(-c2c(Cl)nc(C#N)n2S(=O)(=O)N(C)C)cc1", "note": "[cyazofamid, 4-chloro-2-cyano-N,N-dimethyl-5-p-tolylimidazole-1-sulfonamide]", "values": [
      {"measurement": "pest or weed control at 16 ppm", "setting": "Alternaria solani; [2]", "value": 0, "unit": "%"},
      {"measurement": "pest or weed control at 63 ppm", "setting": "Alternaria solani; [3]", "value": 0, "unit": "%"},
      {"measurement": "pest or weed control at 250 ppm", "setting": "Alternaria solani; Alternaria solani, 120 h, 250 ppm in the spray liquor, read-out: Efficacy in % of the untreated control", "value": 0, "unit": "%"}
    ]},
    {"compound": "manganese ethylenebis(dithiocarbamate) zinc complex [mancozeb]", "values": [
      {"measurement": "Efficacy in % of the untreated control", "setting": "Alternaria solani; 16 ppm in the spray liquor", "value": 0, "unit": "%"},
      {"measurement": "Efficacy in % of the untreated control", "setting": "Alternaria solani; 63 ppm in the spray liquor", "value": 0, "unit": "%"},
      {"measurement": "Efficacy in % of the untreated control", "setting": "Puccinia recondita; 16 ppm in the spray liquor", "value": 0, "unit": "%"},
      {"measurement": "Efficacy in % of the untreated control", "setting": "Puccinia recondita; 63 ppm in the spray liquor", "value": 0, "unit": "%"}
    ]},
    {"compound": "CO/N=C(/C(=O)OC)c1ccccc1COc1ccccc1C", "note": "[kresoxim-methyl, methyl (E)-methoxyimino[α-(otolyloxy)-otolyl]acetate]", "values": [
      {"measurement": "Efficacy in % of the untreated control", "setting": "Puccinia recondita; 1 ppm in the spray liquor", "value": 0, "unit": "%"},
      {"measurement": "Efficacy in % of the untreated control", "setting": "Puccinia recondita; 4 ppm in the spray liquor", "value": 0, "unit": "%"}
    ]},
    {"compound": "O=C1c2ccccc2C(=O)N1SC(Cl)(Cl)Cl", "note": "[folpet, 2-trichloromethylsulfanylisoindole-1,3-dione]", "values": [
      {"measurement": "pest or weed control at 63 ppm", "setting": "Alternaria solani; [3]", "value": 0, "unit": "%"}
    ]},
    {"compound": "COc1ccc(C(=CC(=O)N2CCOCC2)c2ccc(Cl)cc2)cc1OC", "note": "[dimethomorph, 3-(4-chlorophenyl)-3-(3,4-dimethoxyphenyl)-1-morpholin-4-ylpropenone]", "values": [
      {"measurement": "Efficacy in % of the untreated control", "setting": "Puccinia recondita; 16 ppm in the spray liquor", "value": 0, "unit": "%"},
      {"measurement": "Efficacy in % of the untreated control", "setting": "Puccinia recondita; 63 ppm in the spray liquor", "value": 0, "unit": "%"}
    ]},
    {"compound": "Cc1ccccc1-c1c(Cl)nc2ncnn2c1N1CCC(C)CC1", "note": "[Compound A-31, 5-chloro-6-(2-methylphenyl)-7-(4-methylpiperidin-1-yl)-1,2,4-triazolo[1,5a]pyrimidine]", "values": [
      {"measurement": "Efficacy in % of the untreated control", "setting": "Pyrenophora teres; 16 ppm in the spray liquor", "value": 33, "unit": "%"},
      {"measurement": "Efficacy in % of the untreated control", "setting": "Pyrenophora teres; 63 ppm in the spray liquor", "value": 67, "unit": "%"},
      {"measurement": "Efficacy in % of the untreated control", "setting": "Alternaria solani; 63 ppm in the spray liquor", "value": 78, "unit": "%"},
      {"measurement": "Efficacy in % of the untreated control", "setting": "Puccinia recondita; 16 ppm in the spray liquor", "value": 22, "unit": "%"}
    ]},
    {"compound": "OC(Cc1ccccc1Cl)(Cn1nc[nH]c1=S)C1(Cl)CC1", "note": "(centres unmarked) [prothioconazole, 2-[2-(1-chlorocyclopropyl)-3-(2-chlorophenyl)-2-hydroxypropyl]-2,4-dihydro-[1,2,4]triazole-3-thione]", "values": [
      {"measurement": "pest or weed control at 4 ppm", "setting": "Alternaria solani; [1]", "value": 22, "unit": "%"}
    ]},
    {"compound": "COCC(=O)N(c1c(C)cccc1C)C(C)C(=O)OC", "note": "(racemic) [metalaxyl, methyl N-(methoxyacetyl)-N-(2,6-xylyl)-DL-alaninate]", "values": [
      {"measurement": "pest or weed control at 4 ppm", "setting": "Alternaria solani; [1]", "value": 0, "unit": "%"}
    ]},
    {"compound": "Fc1ccc([C@]2(Cn3cncn3)O[C@H]2c2ccccc2Cl)cc1", "note": "(racemic) [epoxiconazole, (2RS, 3SR)-1-[3-(2-chlorophenyl)-2,3-epoxy-2-(4-fluorophenyl)propyl]-1H-1,2,4-triazole]", "values": [
      {"measurement": "pest or weed control at 4 ppm", "setting": "Alternaria solani; [1]", "value": 56, "unit": "%"}
    ]},
    {"compound": "Cc1cc(C)nc(Nc2ccccc2)n1", "note": "[pyrimethanil, 4,6-dimethylpyrimidin-2-ylphenylamine]", "values": [
      {"measurement": "Efficacy in % of the untreated control", "setting": "Puccinia recondita; 16 ppm in the spray liquor", "value": 0, "unit": "%"}
    ]},
    {"compound": "CC(Cc1ccc(C(C)(C)C)cc1)CN1CC(C)OC(C)C1", "note": "(centres unmarked) [fenpropimorph, 4-[3-(4-tert-butylphenyl)-2-methylpropyl]-2,6-dimethylmorpholine]", "values": [
      {"measurement": "Efficacy in % of the untreated control", "setting": "Puccinia recondita; 16 ppm in the spray liquor", "value": 0, "unit": "%"},
      {"measurement": "Efficacy in % of the untreated control", "setting": "Puccinia recondita; 63 ppm in the spray liquor", "value": 0, "unit": "%"}
    ]},
    {"compound": "N#Cc1c(Cl)c(Cl)c(Cl)c(C#N)c1Cl", "note": "[chlorothalonil, 2,4,5,6-tetrachloroisophthalonitrile]", "values": [
      {"measurement": "pest or weed control at 63 ppm", "setting": "Alternaria solani; [3]", "value": 0, "unit": "%"},
      {"measurement": "Efficacy in % of the untreated control", "setting": "Puccinia recondita; 16 ppm in the spray liquor", "value": 17, "unit": "%"}
    ]},
    {"compound": "O=C(Nc1ccccc1-c1ccc(Cl)cc1)c1cccnc1Cl", "note": "[boscalid, 2-chloro-N-(4′-chlorobiphenyl-2-yl)nicotinamide]", "values": [
      {"measurement": "pest or weed control at 16 ppm", "setting": "Alternaria solani; [2]", "value": 22, "unit": "%"}
    ]},
    {"compound": "CCCN(CCOc1c(Cl)cc(Cl)cc1Cl)C(=O)n1ccnc1", "note": "[prochloraz, N-propyl-N-[2-(2,4,6-trichlorophenoxy)ethyl]imidazole-1-carboxamide]", "values": [
      {"measurement": "Efficacy in % of the untreated control", "setting": "Puccinia recondita; 4 ppm in the spray liquor", "value": 0, "unit": "%"},
      {"measurement": "Efficacy in % of the untreated control", "setting": "Puccinia recondita; 16 ppm in the spray liquor", "value": 0, "unit": "%"}
    ]}
  ]
}
